In US20200087314A1, “HISTONE DEACETYLASE INHIBITORS” (BIOMARIN PHARMACEUTICAL INC., priority 2016, published 2020):

Tested on: Frataxin (FXN) mRNA expression
Test: Effect of HDAC inhibitors on frataxin (FXN) mRNA expression in iPSC derived neuronal cells (qRT-PCR)
Type: cell-based
Details: iPSC derived neuronal cells differentiated 16 days, compound incubated 24 h
Experimental: Effect of HDAC Inhibitors on Frataxin (FXN) mRNA Expression
Method: mRNA quantification of compound-treated iPSC derived neuronal cells Neuronal stem cells were cultured in Neurobasal A medium (Life technologies #10888022) supplemented with N2, B27 (Life technologies #17502-048 and #17504-044), L-glutamine (Life technologies #25030081), supplemented with 20 ng/ml EGF (R&D Systems #236-EG) and 20 ng/ml bFGF (BioPioneer # HRP-0011). Neuronal differentiation was initiated by removing growth factors and culturing cells in Neurobasal A with N2 and B27. Cells were allowed to differentiate for 16 days. HDAC inhibitory compound was then added and incubate for 24 h. RNA isolation was performed using the RNeasy Plus mini kit (QIAgen #74134) using a QIAcube instrument per manufacturer's instructions. qRT-PCR was performed using qScript One-Step SYBR Green qRT-PCR Kit (Quanta Biosciences 170-8893BR) with the following conditions: 20 minutes at 50° C., 5 minutes at 95° C., and then 40 cycles of 20 seconds at 95° C., 20 seconds at 55° C., 30 seconds at 72° C. The primer sequences to detect expression of FXN were: 5′-[…]-3′ and 5′-[…]-3′.
Data for additional compounds for iPSC fold inductions and cLogP are shown in Table 4 The ranges reported for cLogP refer to the following. A<1, 1<B<2, 2<C<3, 3<D<5, E>5. NA refers to “not available.”

Structure (SMILES) | Fold Induction
Nc1cc(F)ccc1NC(=O)c1ccc(CC2CN(CC3CC3)C2)cc1 [Compound 169, N-(2-amino-4-fluorophenyl)-4-((1-(cyclopropylmethyl)azetidin-3-yl)methyl)benzamide] | 1.3
C[C@@H]1CN(Cc2ccc(C(=O)Nc3ccccc3N)cc2)[C@@H](C)CN1CC(C)(C)O (racemic) [Compound 478, N-(2-aminophenyl)-4-(((2S,5R)-4-(2-hydroxy-2-methylpropyl)-2,5-dimethylpiperazin-1-yl)methyl)benzamide] | 2.1
C[C@@H]1CN(Cc2ccc(C(=O)Nc3ccccc3N)cc2)[C@@H](C)CN1CC1CC1 (racemic) [Compound 477, N-(2-aminophenyl)-4-(((2S,5R)-4-(cyclopropylmethyl)-2,5-dimethylpiperazin-1-yl)methyl)benzamide] | 1.8
Cl.Cl.Nc1ccccc1NC(=O)c1ccc(CN2CCC3(CCCCC3)CC2)cc1 [Compound 174, 4-((3-azaspiro[5.5]undecan-3-yl)methyl)-N-(2-aminophenyl)benzamide] | 1.1
CC1(C)CN(Cc2ccc(C(=O)Nc3ccccc3N)cc2)CCN1CC1CC1 [Compound 483, N-(2-aminophenyl)-4-((4-(cyclopropylmethyl)-3,3-dimethylpiperazin-1-yl)methyl)benzamide] | 1.7
Nc1ccccc1NC(=O)c1ccc(CN2CCC2)cc1 [Compound 176, N-(2-aminophenyl)-4-(azetidin-1-ylmethyl)benzamide] | 1.5
CC1(C)CCN(Cc2ccc(C(=O)Nc3ccccc3N)cc2)CC1.Cl.Cl [Compound 172, N-(2-aminophenyl)-4-((4,4-dimethylpiperidin-1-yl)methyl)benzamide] | 1.4
Nc1cc(F)ccc1NC(=O)c1ccc(CC2CCN(CC3CC3)CC2)cc1 [Compound 163, N-(2-amino-4-fluorophenyl)-4-((1-(cyclopropylmethyl)piperidin-4-yl)methyl)benzamide] | 1.2
C[C@H]1CN(CC(C)(C)O)CCN1Cc1ccc(C(=O)Nc2ccccc2N)cc1 [Compound 482, (S)-N-(2-aminophenyl)-4-((4-(2-hydroxy-2-methylpropyl)-2-methylpiperazin-1-yl)methyl)benzamide] | 1.7
CC(C)(O)CN1CCCN(Cc2ccc(C(=O)Nc3ccccc3N)cc2)CC1 [Compound 486, N-(2-aminophenyl)-4-((4-(2-hydroxy-2-methylpropyl)-1,4-diazepan-1-yl)methyl) benzamide] | 1.9
